target: T1, human Plk4 kinase domain (aa 2-275) (Homo sapiens, UniProt O00444); test: Plk4 kinase assay (ADP-Glo); assay type: biochemical; conditions: Table 1
T1 construct: purified 6×His-tagged human Plk4 kinase domain (aa 2-275); 6xHis; made in house; host or cells: E. coli
T1 sequence (O00444 2-275): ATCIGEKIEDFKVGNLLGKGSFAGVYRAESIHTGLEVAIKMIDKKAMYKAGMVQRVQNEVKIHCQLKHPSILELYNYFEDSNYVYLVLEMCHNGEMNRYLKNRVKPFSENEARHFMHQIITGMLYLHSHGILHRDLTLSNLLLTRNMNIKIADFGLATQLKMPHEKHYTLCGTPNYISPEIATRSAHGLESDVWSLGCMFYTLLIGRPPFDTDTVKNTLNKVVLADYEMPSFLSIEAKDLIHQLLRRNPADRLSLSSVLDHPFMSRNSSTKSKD
How it was run: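 Enzyme at 2.5-10 nM final, pH 8.0, reacted 4-16 hours at 25° C; ADP generation read by ADP-Glo luminescence. Ki derived from IC50 by Cheng-Prusoff or, for tight binders, Copeland formalism.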

SMILES | IC50 [µM]
CCN(CC)c1nc(Sc2ccc(S(=O)(=O)Cc3ccccc3)cc2)nc(Nc2cc(C)[nH]n2)c1OC | < 1
COc1c(Nc2cc(C)[nH]n2)nc(Sc2ccc(NC(=O)c3cccc([N+](=O)[O-])c3F)cc2F)nc1N1CCOCC1 | 0.1 to 1
COc1c(Nc2cc(C)[nH]n2)nc(Sc2ccc(S(=O)(=O)Cc3cccc(F)c3)cc2)nc1N1CCN(CCN(C)C)CC1 | < 1
COc1c(Nc2cc(C)[nH]n2)nc(Sc2ccc(S(=O)(=O)Cc3ccccc3)cc2)nc1N1CCN(CCN2C3CCCC2CCC3)CC1 | < 1
COc1c(Nc2cc(C)[nH]n2)nc(Sc2ccc(NC(=O)Cc3cccc([N+](=O)[O-])c3F)cc2F)nc1N1CCOCC1 | < 1
COc1c(Nc2cc(C)[nH]n2)nc(Sc2ccc(S(=O)(=O)Cc3nccs3)cc2)nc1N1CCN(CCN(C)C)CC1 | < 1
CCS(=O)(=O)c1ccc(Sc2nc(Nc3cc(C)[nH]n3)c(OC)c(N3CCOC[C@@H]3C)n2)c(Cl)c1 | < 1
COc1c(Nc2cc(C)[nH]n2)nc(Sc2ccc(S(=O)(=O)C(C)(C)c3cccc([N+](=O)[O-])c3F)cc2F)nc1N1CCN(CCN(C)C)CC1 | < 1
COc1c(Nc2cc(C)[nH]n2)nc(Sc2ccc(S(=O)(=O)C(F)c3cccc(C#N)c3F)cc2F)nc1N1CCOCC1 (stereo not drawn) | < 1
COc1c(Nc2cc(C)[nH]n2)nc(Sc2ccc(S(=O)(=O)C(C)(C)c3cccc(Cl)c3F)cc2F)nc1N1CCC(CCN(C)C)CC1 | < 1
COc1c(Nc2cc(C)[nH]n2)nc(Sc2ccc(S(=O)(=O)C(C)(C)c3cccc([N+](=O)[O-])c3F)cc2F)nc1N1CCOCC1 | < 1
CCS(=O)(=O)c1ccc(Sc2nc(Nc3cc(C)[nH]n3)c(OC)c(N3CCN(C)CC3)n2)c(Cl)c1 | < 1
COc1c(Nc2cc(C)[nH]n2)nc(Sc2ccc(S(=O)(=O)Cc3ccccc3C(=O)O)cc2)nc1N1CCN(CCN(C)C)CC1 | < 1
COc1c(Nc2cc(C)[nH]n2)nc(Sc2ccc(S(=O)(=O)Cc3ccccc3)cc2)nc1N1CCO[C@@H](C)C1 | < 1
COc1c(Nc2cc(C)[nH]n2)nc(Sc2ccc(S(C)(=O)=O)cc2F)nc1N1CCN(CCN(C)C)CC1 | < 1
COc1c(Nc2cc(C)[nH]n2)nc(Sc2ccc(S(=O)(=O)Cc3cccc(C(C)=O)c3)cc2)nc1N1CCN(CCN(C)C)CC1 | < 1

SMILES | IC50 [µM]
CCS(=O)(=O)c1ccc(Sc2nc(Nc3cc(C)[nH]n3)c(OC)c(N3CCOCC3)n2)c(Cl)c1 | < 1
COc1c(Nc2cc(C)[nH]n2)nc(Sc2ccc(S(=O)(=O)C(F)c3cccc([N+](=O)[O-])c3F)cc2F)nc1N1CCOCC1 (stereo not drawn) | < 1
COc1c(Nc2cc(C)[nH]n2)nc(Sc2ccc(S(=O)(=O)Cc3ccccc3)cc2)nc1N1CCOC[C@@H]1C | < 1
COc1c(Nc2cc(C)[nH]n2)nc(Sc2ccc(S(=O)(=O)Cc3cccc([N+](=O)[O-])c3F)cc2F)nc1N1CCCCC1 [drawing 379] | < 1
Cc1cc(Nc2nc(Sc3ccc([N+](=O)[O-])cc3)nc3c2CCC32CCN(CCN(C)C)CC2)n[nH]1 | < 1
CCS(=O)(=O)c1ccc(Sc2nc(Nc3cc(C)[nH]n3)c(OC)c(N3CCN(CCN(C)C)CC3)n2)c(F)c1 | < 1
COc1c(Nc2cc(C)[nH]n2)nc(Sc2ccc(C(=O)Cc3cccc([N+](=O)[O-])c3F)cc2F)nc1N1CCOCC1 | < 1
COc1c(Nc2cc(C)[nH]n2)nc(Sc2ccc(S(=O)(=O)C(F)c3cccc([N+](=O)[O-])c3F)cc2F)nc1N1CCN(CCN(C)C)CC1 (stereo not drawn) | < 1
COc1c(Nc2cc(C)[nH]n2)nc(Sc2ccc(S(=O)(=O)C(C)(C)c3c(F)c(F)c(F)c(F)c3F)cc2F)nc1N1CCC(CCN(C)C)CC1 | < 1
COc1c(Nc2cc(C)[nH]n2)nc(Sc2ccc(S(=O)(=O)Cc3cccc(C(=O)N(C)C)c3F)cc2F)nc1N1CCOCC1 | < 1
COc1c(Nc2cc(C)[nH]n2)nc(Sc2ccc(S(C)(=O)=O)cc2Cl)nc1N1CCN(CCN(C)C)CC1 | < 1
COc1c(Nc2cc(C)[nH]n2)nc(Sc2ccc(S(=O)(=O)Cc3c(F)c(F)c(F)c(F)c3F)cc2F)nc1N1CCOCC1 | < 1
COc1c(Nc2cc(C)[nH]n2)nc(Sc2ccc(S(=O)(=O)Cc3cccc(C(N)=O)c3F)cc2F)nc1N1CCOCC1 | < 1
COc1c(Nc2cc(C)[nH]n2)nc(Sc2ccc(S(=O)(=O)C(C)(C)c3cccc([N+](=O)[O-])c3F)cc2F)nc1N1CCCCC1 | < 1
COc1c(Nc2cc(C)[nH]n2)nc(Sc2ccc(S(=O)(=O)Cc3ccccc3)cc2)nc1N1CCN(CCN(C)c2ccccc2)CC1 | < 1
COc1c(Nc2cc(C)[nH]n2)nc(Sc2ccc(S(=O)(=O)Cc3cccc(C(N)=O)c3)cc2)nc1N1CCN(CCN(C)C)CC1 | < 1

Results, then the molecule that gave them:

IC50 [µM] | SMILES
0.1 to 1 | Cc1cc(Nc2nc(Sc3ccc(NC(=O)C4CC4)cc3)nc(-n3ccnc3)c2C)n[nH]1
< 1 | CSc1nc(Nc2cc(C)[nH]n2)c(C)c(N2CCCCC2)n1
< 1 | COc1c(Nc2cc(C)[nH]n2)nc(Sc2ccc(NC(C)=O)cc2)nc1N1CCN(C(=O)C(C)C)CC1
< 1 | COCCC(=O)N1CCN(c2nc(Sc3ccc(NC(=O)C4CC4)cc3)nc(Nc3cc(C)[nH]n3)c2OC)CC1
< 1 | CNC(=O)Nc1ccc(Sc2nc(Nc3cc(C)[nH]n3)c(C)c(N(C)C(C)C)n2)cc1
< 1 | CC(=O)Nc1ccc(Sc2nc(Nc3cc(C)[nH]n3)c(C)c(N3CCNCC3)n2)cc1
< 1 | CC(=O)Nc1ccc(Sc2nc(Nc3cc(C)[nH]n3)c(C)c(NC3CCNCC3)n2)cc1
< 1 | COc1c(Nc2cc(C)[nH]n2)nc(Sc2ccc(NC(C)=O)cc2)nc1N(C)C
< 1 | COc1c(Nc2cc(C)[nH]n2)nc(Sc2ccc(NC(C)=O)cc2)nc1N1CCN(C(=N)N)CC1
< 1 | COc1c(Nc2cc(C)[nH]n2)nc(Sc2ccc(NC(C)=O)cc2)nc1N1CCN(CCNC(N)=O)CC1
< 1 | COc1c(Nc2cc(C)[nH]n2)nc(Sc2ccc(NC(C)=O)cc2)nc1N1CCC(C(C)=O)CC1
< 1 | Cc1cc(Nc2nc(Sc3ccc(NC(=O)C4CC4)cc3)nc(N3CCOCC3)c2C)n[nH]1
< 1 | COc1c(Nc2cc(C)[nH]n2)nc(Sc2ccc(NC(C)=O)cc2)nc1C1=CCNCC1
< 1 | CCN(C)CCN1CCN(c2nc(Sc3ccc(NC(C)=O)cc3)nc(Nc3cc(C)[nH]n3)c2OC)CC1
< 1 | CC(=O)Nc1ccc(Sc2nc(Nc3cc(C)[nH]n3)c(C)c(N3CCC(OCCN(C)C)CC3)n2)cc1
< 1 | COc1c(Nc2cc(C)[nH]n2)nc(Sc2ccc(S(C)(=O)=O)cc2)nc1N1CCC(CCN(C)C)CC1
< 1 | CC(=O)Nc1ccc(Sc2nc(Nc3cc(C)[nH]n3)c(C)c(N3CCN(C(=O)CN(C)C)CC3)n2)cc1
< 1 | COc1c(Nc2cc(C)[nH]n2)nc(Sc2ccc(NC(C)=O)cc2)nc1N1CCC(F)CC1
< 1 | COc1c(Nc2cc(C)[nH]n2)nc(Sc2ccc(NC(=O)C3CC3)cc2)nc1N1CCN(CCN(C)C)CC1
< 1 | COc1c(Nc2cc(C)[nH]n2)nc(Sc2ccc(NC(C)=O)cc2)nc1N1CCN(C(=N)NO)CC1
< 1 | COc1c(Nc2cc(C)[nH]n2)nc(Sc2ccc(NC(C)=O)cc2)nc1N1CCN(CCN(C)C)C(C)C1 (stereo not drawn)
< 1 | COc1c(Nc2cc(C)[nH]n2)nc(Sc2ccc(NC(C)=O)cc2)nc1N1CCC(CCN(C)C)CC1

IC50 [µM] | SMILES
< 1 | CCNc1nc(Sc2ccc(NC(=O)C3CC3)cc2)nc(Nc2cc(C)[nH]n2)c1OC
< 1 | COc1c(Nc2cc(C)[nH]n2)nc(Sc2ccc(NC(C)=O)cc2)nc1N1CCN(CCCN(C)C)CC1
0.1 to 1 | CCOc1c(Nc2cc(C)[nH]n2)nc(Sc2ccc(NC(=O)C3CCCC3)cc2)nc1N(C)CC
< 1 | Cc1cc(Nc2nc(Sc3ccc(NC(=O)C4CCCC4)cc3)nc3c2C(C)CC3)n[nH]1 (stereo not drawn)
< 1 | COc1c(Nc2cc(C)[nH]n2)nc(Sc2ccc(NC(C)=O)cc2)nc1C1=CCN(C)CC1
< 1 | COc1c(Nc2cc(C)[nH]n2)nc(Sc2ccc(NC(=O)C3CC3)cc2)nc1N1CCN(C2CCN(C)CC2)CC1
< 1 | COc1c(Nc2cc(C)[nH]n2)nc(Sc2ccc(NC(C)=O)cc2)nc1N1CCN(CCN2CCCCCC2)CC1
< 1 | COCCNc1nc(Sc2ccc(NC(=O)C3CC3)cc2)nc(Nc2cc(C)[nH]n2)c1C
< 1 | COc1c(Nc2cc(C)[nH]n2)nc(Sc2ccc(NC(C)=O)cc2)nc1N1CCOCC1
0.1 to 1 | CCOc1c(Nc2cc(C)[nH]n2)nc(Sc2ccc(NC(=O)C3CCCC3)cc2)nc1N1CCN(CCOC)CC1
< 1 | COc1c(Nc2cc(C)[nH]n2)nc(Sc2ccc(S(=O)(=O)C(C)(C)c3c(F)c(F)cc(F)c3F)cc2F)nc1N1CCC(N)CC1
< 1 | COc1c(Nc2cc(C)[nH]n2)nc(Sc2ccc(S(=O)(=O)CCO)cc2)nc1N1CCN(CCN(C)C)CC1
< 1 | CC(=O)Nc1ccc(Sc2nc(Nc3cc(C)[nH]n3)c(C)c(N3CCN(CCN4CCCCC4)CC3)n2)cc1
< 1 | CC(=O)Nc1ccc(Sc2nc(Nc3cc(C)[nH]n3)c(C)c(N3CCC(N)CC3)n2)cc1
< 1 | CC(=O)Nc1ccc(Sc2nc(Nc3cc(C)[nH]n3)c(C)c(N3CCOC[C@H]3C)n2)cc1
< 1 | Cc1cc(Nc2nc(Sc3ccc(NC(=O)C4CC4)cc3)nc(C)c2C)n[nH]1
< 1 | COc1c(Nc2cc(C)[nH]n2)nc(Sc2cccc(NC(C)=O)c2)nc1N1CCOCC1
< 1 | COc1c(Nc2cc(C)[nH]n2)nc(Sc2ccc(S(=O)(=O)Cc3cccc([N+](=O)[O-])c3F)cc2)nc1N1CCC(O)CC1
> 1 | CCc1c(Nc2cc(C)[nH]n2)nc(Sc2ccc(NC(=O)C3CC3)cc2)nc1N1CCN(C)CC1
< 1 | CC(=O)Nc1ccc(Sc2nc(Nc3cc(C)[nH]n3)c(C)c(N3CCN(C(=O)CCN(C)C)CC3)n2)cc1
0.1 to 1 | CCOc1c(Nc2cc(C)[nH]n2)nc(Sc2ccc(NC(=O)C3CC3)cc2)nc1N1CCN(C(=O)CCOC)CC1
